For data set [1], the system named is MSTO-211H cells. Nature of the data set: Tumor cell proliferation inhibition experiment (Cell Titer Glo), MSTO-211H. To be noted: MSTO-211H lung cancer cells, three days incubation. Format: cell-based. On the procedure: (§1) Cell Titer Glo luminescent cell viability assay kit was used to quantify the ATP content in cells, so as to quantify the number of viable cells. […] On the second day, the compound was added to the 96-well plate after a three-fold serial dilution to eight concentrations, and incubated at 37° C. for three days in the 5% carbon dioxide incubator. The culture medium was treated with the addition of Cell Titer Glo luminescent cell viability assay kit (Promega G7570) reagent, incubated for 10 minutes, and then placed in Envision (Pelkin Elmer) to read the luminescence signal. DMSO was used instead of the compound as a control to calculate the inhibition rate (inhibition rate %=(1−compound signal/DMSO signal)*100), and then standard four parameter curve fitting was used to calculate the inhibitory activity IC50.
Background: ATP-based viability assays read luminescence as a measure of living cells.

Data set [2] relates to NCI-H2052 cells. Nature of the data set: Tumor cell proliferation inhibition experiment (Cell Titer Glo), NCI-H2052. Format: cell-based. To be noted: NCI-H2052 lung cancer cells, three days incubation. The procedure:
as §1

The nature of data set [3]: Pharmacokinetic evaluation experiment in mice (IV and PO). Format: in vivo. The conditions noted are these: male ICR mice; for Vd: read-out: Vss. The procedure: 120 healthy adult male ICR mice were selected and divided into 20 groups according to the principle of similar body weight, with 6 mice in each group of IV (10 groups) and 6 mice in each group of PO (10 groups). An appropriate amount of sample was weighed, sequentially added with an appropriate amount of DMA, Solutol, and Saline according to the volume ratio of 10:10:80, and stirred and sonicated to achieve a clarification of 1 mg/mL. After overnight fasting, mice in the IV group were intravenously administered with a volume of 5 mL/kg and a dose of 5 mg/kg, respectively; and mice in the PO group were intragastrically administered with a volume of 30 mL/kg and a dose of 30 mg/kg, respectively. Interleaved sampling was performed on every 6 mice after administration of the test compound. In the IV group, approximately 30 μL of blood was collected at 0.0833, 0.25, 0.5, 1, 2, 4, 6, 8, and 24 hours, and placed in a commercial anticoagulant tube pre-filled with EDTA-K2. In the PO group, approximately 30 μL of blood was collected at 0.25, 0.5, 1, 2, 4, 6, 8, and 24 hours, and placed in the commercial anticoagulant tube pre-filled with EDTA-K2. The tubes were centrifuged for 15 minutes to separate the plasma, and the plasma was stored at −80° C. Animals were allowed to eat 2 hours after administration. The content of the test compound in the plasma of mice after intravenous and intragastric administration was determined by LC/MS/MS method. The linear range of the method was 1.00 to 1000 ng/mL: plasma samples were analyzed after protein precipitation.

The mark [4] stands for this setting: mouse, plasma, PO 30 mg/kg vs IV 5 mg/kg.
[5] abbreviates: mouse, IV 5 mg/kg, plasma, read-out: AUC.
The mark [6] stands for this setting: mouse, PO 30 mg/kg, plasma, read-out: AUC.
Where [7] appears, read: mouse, PO 30 mg/kg, plasma, read-out: Cmax.
Where [8] appears, read: mouse, PO 30 mg/kg, plasma, read-out: Tmax.

Where two headings read alike, the source gives them in different places.

In general, IC50 refers to the concentration that inhibits the measured activity by half. The half-life is how long it takes for the measured level to halve. High values mean slow decline, low ones rapid decline. As a reminder, the AUC is the area under the concentration-time curve, a measure of exposure. As a reminder, the Cmax is the highest concentration seen after dosing. By Tmax is commonly meant the time from dosing to the highest level. Molecule `CNC(=O)c1cc2c(c(F)c1-c1c(Cl)c(F)cc3c1C[C@](c1ccccc1)([C@@H]1CCCN1)O3)C1CC1O2` (stereo partly drawn) [Compound 2a] gave an IC50 in data set [1] (Homo sapiens, 72 h) of 414 nM. This molecule showed an IC50 in data set [2] (Homo sapiens, 72 h) of 928 nM. The bioavailability in data set [3] (setting [4]) was 95.4%. For the same molecule, in data set [3] (mouse, IV 5 mg/kg, plasma), the clearance was determined as 86.3 mL/min/kg, the half-life is 3.82 h and the Vd was determined as 28 L/kg. In addition, the AUC in data set [3] (setting [5]) amounted to 750 ng·h/mL. Moreover, the AUC in data set [3] (setting [6]) is 4300 ng·h/mL. In data set [3] (setting [7]), the Cmax was determined as 474 ng/mL. Further, the Tmax in data set [3] (setting [8]) was determined as 4 h.

In the case of `CNC(=O)c1cc2c(c(F)c1-c1c(Cl)c(F)cc3c1C[C@](c1ccccc1)([C@@H]1CCCN1)O3)CCC2` [Compound 31a], the IC50 in data set [1] (Homo sapiens, 72 h) is 200 nM; in data set [2] (Homo sapiens, 72 h) it was 250 nM. Besides, the bioavailability in data set [3] (setting [4]) came out at 44.6%. Also, in data set [3] (mouse, IV 5 mg/kg, plasma), the clearance is 17.9 mL/min/kg. For the same molecule, in data set [3] (mouse, IV 5 mg/kg, plasma), the half-life was 3.52 h. Moreover, the AUC in data set [3] (setting [5]) is 2790 ng·h/mL; in data set [3] (setting [6]) it was 7470 ng·h/mL. Further, the Vd in data set [3] (mouse, IV 5 mg/kg, plasma) was 4.44 L/kg. The Cmax in data set [3] (setting [7]) came to 928 ng/mL. Also, the Tmax in data set [3] (setting [8]) was 1 h.

Molecule `CNC(=O)c1cc2c(c(F)c1-c1c(Cl)c(F)cc3c1C[C@](c1ccccc1)([C@@H]1CC4(CC4)CN1)O3)OC1CC21` (stereo partly drawn) [Compound 18a] displayed an IC50 in data set [1] (Homo sapiens, 72 h) of 690 nM. This molecule also displayed an IC50 in data set [2] (Homo sapiens, 72 h) of 730 nM. Moreover, in data set [3] (setting [4]), the bioavailability was found to be 27.9%. Besides, in data set [3] (mouse, IV 5 mg/kg, plasma), the clearance was determined as 107 mL/min/kg, the half-life is 1.59 h and the Vd was 12.2 L/kg. Further, the AUC in data set [3] (setting [5]) amounted to 804 ng·h/mL. Besides, the AUC in data set [3] (setting [6]) was 1680 ng·h/mL. Moreover, the Cmax in data set [3] (setting [7]) was 199 ng/mL. The Tmax in data set [3] (setting [8]) turned out to be 0.8 h.

`NC(=O)c1cc2c(c(F)c1-c1c(Cl)c(F)cc3c1C[C@](c1ccccc1)([C@@H]1CCCN1)O3)CCC2O` (stereo partly drawn) [Compound 53a]: in data set [1] (Homo sapiens, 72 h), the IC50 stood at 150 nM. In data set [2] (Homo sapiens, 72 h), 160 nM corresponded to half-maximal inhibition (IC50). In addition, the bioavailability in data set [3] (setting [4]) amounted to 14.4%. Further, in data set [3] (mouse, IV 5 mg/kg, plasma), the clearance came out at 44.2 mL/min/kg, the half-life is 4.18 h and the Vd is 6.94 L/kg. Moreover, in data set [3] (setting [5]), the AUC worked out at 1880 ng·h/mL. The AUC in data set [3] (setting [6]) turned out to be 1620 ng·h/mL. Besides, the Cmax in data set [3] (setting [7]) was determined as 301 ng/mL. In addition, the Tmax in data set [3] (setting [8]) is 0.5 h.

As for `CNC(=O)c1cc2c(c(F)c1-c1c(Cl)c(F)cc3c1C[C@@](CN[C@H]1CC[C@](C)(O)CC1)(c1ccccc1)O3)C1CC1O2` (stereo partly drawn) [Compound 14a], the IC50 in data set [1] came to 320 nM. For the same molecule, 360 nM corresponded to half-maximal inhibition in data set [2] (IC50). In data set [3] (IV 5 mg/kg, plasma), the exposure (AUC) was determined as 3462 ng·h/mL, the “CL” value was determined as 24.1 mL/min/kg, the “T1/2” value worked out at 2.35 h and the “Vss” value is on record as 4.34 L/kg. Also, the F % in data set [3] (PO 30 mg/kg vs IV 5 mg/kg) was 102.1%. Moreover, in data set [3] (PO 30 mg/kg, plasma), the “AUC” value came to 21209 ng·h/mL, the highest concentration (Cmax) is recorded as 2697 ng/mL and the time to peak (Tmax) turned out to be 2.00 h.

Consider `CNC(=O)c1cc2c(c(F)c1-c1c(Cl)c(F)cc3c1C[C@](c1ccccc1)([C@@H]1CCCN1)O3)CCC2O` (stereo partly drawn) [Compound 41a], for which the IC50 in data set [1] (Homo sapiens, 72 h) came to 190 nM; in data set [2] (Homo sapiens, 72 h), 420 nM. Besides, in data set [3] (setting [4]), the bioavailability came to 61.8%. In data set [3] (mouse, IV 5 mg/kg, plasma), this molecule yielded a clearance of 36.5 mL/min/kg. Moreover, in data set [3] (mouse, IV 5 mg/kg, plasma), the half-life is 2.19 h. The AUC in data set [3] (setting [5]) was determined as 2280 ng·h/mL; in data set [3] (setting [6]) it was 8460 ng·h/mL. Moreover, the Vd in data set [3] (mouse, IV 5 mg/kg, plasma) was 5.32 L/kg. In data set [3] (setting [7]), the Cmax was 1270 ng/mL. The Tmax in data set [3] (setting [8]) was 2 h.

In turn, `CNC(=O)c1cc2c(c(F)c1-c1c(Cl)c(F)cc3c1C[C@@](CN[C@H]1CC[C@H](O)CC1)(c1ccccc1)O3)C1CC1O2` (stereo partly drawn) [Compound 13a] displayed an IC50 in data set [1] (Homo sapiens, 72 h) of 200 nM. The molecule further registered an IC50 in data set [2] (Homo sapiens, 72 h) of 210 nM. Moreover, the bioavailability in data set [3] (setting [4]) was determined as 108%. In data set [3] (mouse, IV 5 mg/kg, plasma), the clearance was 41.4 mL/min/kg, the half-life is 2.23 h and the Vd was determined as 8.5 L/kg. The AUC in data set [3] (setting [5]) turned out to be 2010 ng·h/mL. Moreover, in data set [3] (setting [6]), the AUC came out at 13100 ng·h/mL. The Cmax in data set [3] (setting [7]) was found to be 2050 ng/mL. For the same molecule, the Tmax in data set [3] (setting [8]) worked out at 2 h.

As to `CNC(=O)c1cnc(OCCO)c(F)c1-c1c(Cl)c(F)cc2c1C[C@](c1ccccc1)([C@@H]1CC3(CC3)CN1)O2` [Compound 10a], half-maximal inhibition in data set [1] (Homo sapiens, 72 h) (IC50) required 236 nM. For the same molecule, 328 nM corresponded to half-maximal inhibition in data set [2] (Homo sapiens, 72 h) (IC50). Moreover, the bioavailability in data set [3] (setting [4]) is 17.3%. In data set [3] (mouse, IV 5 mg/kg, plasma), the clearance is 50.4 mL/min/kg, the half-life is 1.11 h and the Vd was determined as 2.42 L/kg. Moreover, the AUC in data set [3] (setting [5]) came out at 1650 ng·h/mL. Besides, the AUC in data set [3] (setting [6]) amounted to 1710 ng·h/mL. Besides, the Cmax in data set [3] (setting [7]) turned out to be 603 ng/mL. In data set [3] (setting [8]), the Tmax is 0.5 h.

For the molecule `CNC(=O)c1cc2c(c(F)c1-c1c(Cl)c(F)cc3c1C[C@](c1ccccc1)([C@@H]1CC4(CC4)CN1)O3)C1CC1O2` (stereo partly drawn) [Compound 16a], half-maximal inhibition in data set [1] (Homo sapiens, 72 h) (IC50) required 1730 nM. The molecule further showed a half-maximal inhibitory concentration (IC50) in data set [2] (Homo sapiens, 72 h) of 1850 nM. In addition, the bioavailability in data set [3] (setting [4]) was found to be 40.3%. Also, in data set [3] (mouse, IV 5 mg/kg, plasma), the clearance was determined as 56.4 mL/min/kg, the half-life is 2.28 h and the Vd amounted to 11.4 L/kg. Besides, the AUC in data set [3] (setting [5]) turned out to be 1480 ng·h/mL. Further, the AUC in data set [3] (setting [6]) was 3570 ng·h/mL. For the same molecule, the Cmax in data set [3] (setting [7]) came to 434 ng/mL. Besides, in data set [3] (setting [8]), the Tmax was determined as 2 h.
